# How the values were obtained:
# [1] = Stability of a solution in pH 8 aqueous buffer on standing for 12 weeks at 50° C.; format: physicochemical
# Aqueous solubility = format: physicochemical; conditions: water, 4° C.
# [2] = aqueous solution; Higuchi et al. 1955; cited from earlier work
number of degradation products detected by H.P.L.C. ([1]; H.P.L.C. techniques),hydrolytic stability ([1]; aqueous solutions),"remaining at 2016 h ([1]; pH 8 aqueous buffer, 12 weeks at 50° C., read-out: eletriptan left (relative to the original weight)) [%]",solubility (Aqueous solubility) [mg/mL],Structure (SMILES),effect of caffeine on hydrolytic degradation [2]
At least five,hydrolytically unstable,< 85,> 100,CN1CCC[C@@H]1Cc1c[nH]c2ccc(CCS(=O)(=O)c3ccccc3)cc12 [Eletriptan hemisulphate],–
–,–,–,–,CCOC(=O)c1ccc(N)cc1 [benzocaine],substantially reduces the hydrolytic degradation

# From US6166025A, “Pharmaceutical compositions containing eletriptran hemisulphate and caffeine” (Pfizer Inc., priority 1997, dated 2000)
